Consider seven compounds from patent US9758526B2, “Quinoline-substituted compound” (TAIHO PHARMACEUTICAL CO., LTD., priority 2013, dated 2017).

One assay has as its target T1, EGFR (T790M/L858R) (Homo sapiens, UniProt P00533, L858R/T790M).
T1 construct: purchased Carna Biosciences, Inc
Description: EGFR (T790M/L858R) kinase inhibitory activity. The class given is biochemical. The note with it: ATP 1 μM, 25° C. for 120 minutes.

The next assay addresses T2, EGFR (d746-750/T790M) (Homo sapiens, UniProt P00533, DEL746-750/T790M).
T2 construct: purchased Carna Biosciences, Inc
The assay can be described thus: EGFR (d746-750/T790M) kinase inhibitory activity. The class given is biochemical. The following applies: ATP 1.5 μM. The gist of the method: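 Recombinant human EGFR d746-750/T790M phosphorylating biotinylated peptide (250 nM) with 1.5 μM ATP, 10 mM MgCl2 and MnCl2, 2.5% DMSO, 120 min at 25 °C. EDTA-stopped; phosphotyrosine detected by Eu-PT66/APC-SA TR-FRET (665/620 nm ratio). IC50 from percent inhibition curves, EDTA-first samples as background.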

Another assay has as its target T3, EGFR (L858R) (Homo sapiens, UniProt P00533, L858R).
T3 construct: purchased Carna Biosciences, Inc
The assay can be described thus: EGFR (L858R) kinase inhibitory activity. The format is biochemical. The note with it: ATP 4 μM. The procedure, abridged: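 Recombinant human EGFR (L858R) was incubated with 250 nM biotinylated peptide, 4 μM ATP, 10 mM MgCl2 and 10 mM MnCl2 in 2.5% DMSO for 120 min at 25 °C. The reaction was stopped with EDTA, and phosphotyrosine was detected by TR-FRET (Eu-PT66 antibody/APC-SA, 665/620 nm ratio). IC50 was obtained from the inhibition curves.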

The next assay addresses T4, EGFR (d746-750) (Homo sapiens, UniProt P00533, DEL746-750).
T4 construct: purchased Carna Biosciences, Inc
Description: EGFR (d746-750) kinase inhibitory activity. The note with it: ATP 5 μM, kinase reaction 90 minutes. The class given is biochemical. The procedure, abridged: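 Recombinant human EGFR (d746-750) with 250 nM biotinylated peptide, 5 μM ATP, 10 mM MgCl2 and 10 mM MnCl2, 2.5% DMSO, reacted 90 min at 25° C., stopped with EDTA. Phosphotyrosine detected by TR-FRET (Eu-PT66 antibody/APC-streptavidin, 665/620 nm ratio), with EDTA-pre-stopped background; IC50 (nM) from inhibition curve fit.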

The target in the next assay is T5, EGFR (WT) (Homo sapiens, UniProt P00533).
T5 construct: expressing a cytoplasmic domain of human EGFR (WT) with its N-terminus fused to a FLAG tag; FLAG (N); made in house; host or cells: insect Sf9 cells, baculovirus expression system
Description: EGFR (WT) kinase inhibitory activity. The following applies: substrate peptide 500 nM. The class given is biochemical. The procedure, abridged: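 The kinase was the cytoplasmic domain of human EGFR WT, N-terminally FLAG-tagged, expressed in Sf9 cells via baculovirus and purified on anti-FLAG agarose. Phosphotyrosine was detected by Eu-PT66/APC-SA TR-FRET (665/620 nm ratio), and IC50 was fitted from % inhibition.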

Assay [1] relates to NCI-H1975 expressing EGFR (T790M/L858R). The assay can be described thus: Growth inhibition, NCI-H1975 expressing EGFR (T790M/L858R). The note with it: Homo sapiens, NCI-H1975, 72 h; cultured three days, CellTiter-Glo. The class given is cell-based. The gist of the method:
(§1)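 Cells seeded and grown 1 day, then exposed 3 days at 37 °C/5% CO2 to serial dilutions (final DMSO 0.2%). CellTiter-Glo luminescence was read before dosing and after 3 days; GI50 from inhibition (C−T)/(C−C0)×100 by curve fitting.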

Assay [2] deals with HCC827 expressing EGFR (d746-750). Description: Growth inhibition, HCC827 expressing EGFR (d746-750). The class given is cell-based. The note with it: Homo sapiens, HCC827, 72 h; cultured three days, CellTiter-Glo. The procedure, abridged:
as §1
Background: ATP-based viability assays read luminescence as a measure of living cells.

Assay [3] deals with A431 expressing EGFR (WT). Description: Growth inhibition, A431 expressing EGFR (WT). The class given is cell-based. The note with it: Homo sapiens, A-431, 72 h; cultured three days, CellTiter-Glo. The gist of the method: as §1

As usually defined, the IC50 is the concentration that inhibits the measured activity by half. Lower therefore signals greater potency. By GI50 is commonly meant the concentration giving 50% growth inhibition. Low values mean greater sensitivity of the cells, high ones lower sensitivity of the cells.

T4 sequence (P00533 with tags, fused parts or gaps DEL746-750 limits assumed): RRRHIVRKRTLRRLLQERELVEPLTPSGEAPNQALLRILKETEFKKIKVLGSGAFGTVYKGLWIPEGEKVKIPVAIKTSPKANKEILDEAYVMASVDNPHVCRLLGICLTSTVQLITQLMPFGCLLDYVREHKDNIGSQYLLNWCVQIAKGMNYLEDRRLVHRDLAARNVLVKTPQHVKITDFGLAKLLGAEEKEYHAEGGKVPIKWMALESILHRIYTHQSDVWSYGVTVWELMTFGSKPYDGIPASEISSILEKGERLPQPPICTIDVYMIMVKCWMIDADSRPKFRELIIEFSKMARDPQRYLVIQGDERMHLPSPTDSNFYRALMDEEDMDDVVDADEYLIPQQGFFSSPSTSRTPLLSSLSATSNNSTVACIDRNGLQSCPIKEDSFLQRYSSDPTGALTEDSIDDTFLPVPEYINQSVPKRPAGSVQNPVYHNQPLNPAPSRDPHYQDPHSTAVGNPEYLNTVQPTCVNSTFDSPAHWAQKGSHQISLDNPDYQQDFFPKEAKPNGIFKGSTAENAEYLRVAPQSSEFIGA
T2 sequence (P00533 with tags, fused parts or gaps DEL746-750/T790M limits assumed): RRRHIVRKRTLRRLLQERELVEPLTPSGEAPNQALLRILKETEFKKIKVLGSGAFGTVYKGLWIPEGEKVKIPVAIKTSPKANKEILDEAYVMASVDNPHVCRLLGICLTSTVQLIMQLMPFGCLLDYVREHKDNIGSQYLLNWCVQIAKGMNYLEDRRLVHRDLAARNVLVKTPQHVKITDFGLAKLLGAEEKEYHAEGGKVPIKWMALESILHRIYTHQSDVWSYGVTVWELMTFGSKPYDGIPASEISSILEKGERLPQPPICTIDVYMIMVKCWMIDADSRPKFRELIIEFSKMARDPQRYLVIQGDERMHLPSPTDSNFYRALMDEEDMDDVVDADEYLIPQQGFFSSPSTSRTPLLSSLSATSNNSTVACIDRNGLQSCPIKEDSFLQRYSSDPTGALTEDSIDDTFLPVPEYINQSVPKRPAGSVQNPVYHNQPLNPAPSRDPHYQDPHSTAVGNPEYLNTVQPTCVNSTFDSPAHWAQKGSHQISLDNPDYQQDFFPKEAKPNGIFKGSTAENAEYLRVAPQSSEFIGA
T1 sequence (P00533 25-1210 T790M/L858R): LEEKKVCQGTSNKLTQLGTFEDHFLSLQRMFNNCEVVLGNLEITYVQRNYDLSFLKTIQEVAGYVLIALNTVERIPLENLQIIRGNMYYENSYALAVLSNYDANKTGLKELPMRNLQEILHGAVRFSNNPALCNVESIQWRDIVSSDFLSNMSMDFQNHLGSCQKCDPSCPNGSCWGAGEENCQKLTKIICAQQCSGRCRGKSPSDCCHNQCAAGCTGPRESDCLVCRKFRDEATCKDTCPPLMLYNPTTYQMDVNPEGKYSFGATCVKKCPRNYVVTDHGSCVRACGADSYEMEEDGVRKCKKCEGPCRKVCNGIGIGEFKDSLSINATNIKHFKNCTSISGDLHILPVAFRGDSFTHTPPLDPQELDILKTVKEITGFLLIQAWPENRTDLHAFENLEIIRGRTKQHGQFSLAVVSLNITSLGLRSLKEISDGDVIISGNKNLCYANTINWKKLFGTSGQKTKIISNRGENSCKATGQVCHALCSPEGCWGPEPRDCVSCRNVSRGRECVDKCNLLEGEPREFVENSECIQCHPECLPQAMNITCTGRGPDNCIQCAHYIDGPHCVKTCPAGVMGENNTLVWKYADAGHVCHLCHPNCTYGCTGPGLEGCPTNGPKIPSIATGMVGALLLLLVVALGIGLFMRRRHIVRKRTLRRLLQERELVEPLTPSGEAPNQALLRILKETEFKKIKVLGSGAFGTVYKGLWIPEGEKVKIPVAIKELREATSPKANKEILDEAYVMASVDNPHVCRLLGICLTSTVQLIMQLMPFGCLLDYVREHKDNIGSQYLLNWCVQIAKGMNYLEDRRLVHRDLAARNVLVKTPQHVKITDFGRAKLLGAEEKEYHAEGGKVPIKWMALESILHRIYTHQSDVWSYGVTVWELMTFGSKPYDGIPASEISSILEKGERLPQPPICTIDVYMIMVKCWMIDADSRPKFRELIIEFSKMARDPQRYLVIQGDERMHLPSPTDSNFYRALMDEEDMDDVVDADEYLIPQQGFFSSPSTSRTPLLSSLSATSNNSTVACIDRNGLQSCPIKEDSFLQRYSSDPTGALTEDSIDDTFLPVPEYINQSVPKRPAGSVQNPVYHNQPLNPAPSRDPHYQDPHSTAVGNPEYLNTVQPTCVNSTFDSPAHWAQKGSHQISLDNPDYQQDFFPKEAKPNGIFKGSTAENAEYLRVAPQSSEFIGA
T5 sequence (P00533 669-1210 limits assumed): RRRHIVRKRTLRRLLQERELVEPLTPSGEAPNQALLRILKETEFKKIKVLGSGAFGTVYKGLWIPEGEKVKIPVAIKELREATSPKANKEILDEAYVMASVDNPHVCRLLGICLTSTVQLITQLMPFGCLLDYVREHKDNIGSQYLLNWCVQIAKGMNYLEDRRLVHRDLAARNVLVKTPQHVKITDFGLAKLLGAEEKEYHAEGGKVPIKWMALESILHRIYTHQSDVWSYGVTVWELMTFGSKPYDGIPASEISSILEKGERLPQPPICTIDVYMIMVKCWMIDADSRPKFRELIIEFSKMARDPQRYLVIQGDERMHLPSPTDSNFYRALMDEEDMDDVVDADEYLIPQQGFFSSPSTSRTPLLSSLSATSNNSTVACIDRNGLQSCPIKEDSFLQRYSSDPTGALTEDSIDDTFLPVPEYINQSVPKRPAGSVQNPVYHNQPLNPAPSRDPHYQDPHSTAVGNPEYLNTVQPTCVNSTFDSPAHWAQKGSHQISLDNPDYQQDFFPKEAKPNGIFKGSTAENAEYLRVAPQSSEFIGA
T3 sequence (P00533 25-1210 L858R): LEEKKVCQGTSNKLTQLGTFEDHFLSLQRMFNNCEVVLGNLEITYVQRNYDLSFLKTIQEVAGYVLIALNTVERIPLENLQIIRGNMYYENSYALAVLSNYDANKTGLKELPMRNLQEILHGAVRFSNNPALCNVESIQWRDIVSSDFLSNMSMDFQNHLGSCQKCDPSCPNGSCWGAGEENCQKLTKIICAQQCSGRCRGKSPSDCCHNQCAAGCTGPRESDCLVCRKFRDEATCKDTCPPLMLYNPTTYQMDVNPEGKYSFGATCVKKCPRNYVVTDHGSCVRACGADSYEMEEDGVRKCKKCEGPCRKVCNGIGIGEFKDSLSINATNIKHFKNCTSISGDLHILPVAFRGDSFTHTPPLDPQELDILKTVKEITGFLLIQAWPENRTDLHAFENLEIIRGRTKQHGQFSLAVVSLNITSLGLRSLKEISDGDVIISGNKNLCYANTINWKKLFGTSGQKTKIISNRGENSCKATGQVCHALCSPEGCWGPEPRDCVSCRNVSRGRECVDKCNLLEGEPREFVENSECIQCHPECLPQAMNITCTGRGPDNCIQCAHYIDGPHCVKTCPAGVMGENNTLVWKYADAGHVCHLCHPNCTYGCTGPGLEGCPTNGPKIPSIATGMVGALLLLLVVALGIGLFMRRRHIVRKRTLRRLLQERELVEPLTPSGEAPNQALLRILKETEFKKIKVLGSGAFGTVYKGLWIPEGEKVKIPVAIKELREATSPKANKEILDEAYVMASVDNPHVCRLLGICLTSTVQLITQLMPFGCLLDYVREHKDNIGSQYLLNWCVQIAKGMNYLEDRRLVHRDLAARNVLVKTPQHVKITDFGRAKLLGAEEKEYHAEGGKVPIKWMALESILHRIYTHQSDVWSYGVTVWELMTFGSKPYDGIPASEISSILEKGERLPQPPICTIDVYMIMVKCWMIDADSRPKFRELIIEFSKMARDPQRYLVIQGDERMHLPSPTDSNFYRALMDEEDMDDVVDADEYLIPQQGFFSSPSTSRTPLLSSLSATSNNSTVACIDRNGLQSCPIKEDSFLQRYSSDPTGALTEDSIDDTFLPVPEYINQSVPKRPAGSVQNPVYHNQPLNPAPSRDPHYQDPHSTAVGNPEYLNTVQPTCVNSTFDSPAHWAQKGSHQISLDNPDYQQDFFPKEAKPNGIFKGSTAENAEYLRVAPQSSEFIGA

Take `C=C1c2c(-c3cnc4ccccc4c3)c3c(N)ncnc3n2C[C@H]1NC(=O)C=CC` (mixture of isomers) [Example 3, (S)—N-(4-amino-6-methylene-5-(quinolin-3-yl)-7,8-dihydro-6H -pyrimido[5,4-b]pyrrolizin-7-yl)but-2-enamide]: the half-maximal inhibitory concentration (IC50) against EGFR (T790M/L858R) was 6.1 nM; at EGFR (d746-750/T790M) it was 1.8 nM; against EGFR (L858R), 15 nM; against EGFR (d746-750), 7.6 nM; on EGFR (WT), 110 nM. Besides, the figures for the GI50 in assay [1], in assay [2] and in assay [3] were 560 nM, 16 nM and over 10000 nM, respectively.

For the compound `C=CC(=O)N[C@@H]1Cn2c(c(-c3cnc4ccccc4c3)c3c(N)ncnc32)C1=C` [Example 1, (S)—N-(4-amino-6-methylene-5-(quinolin-3-yl)-7,8-dihydro-6H-pyrimido[5,4-b]pyrrolizin-7-yl)acrylamide], the IC50 against EGFR (T790M/L858R) is under 0.5 nM; against EGFR (d746-750/T790M), under 0.15 nM; at EGFR (L858R), under 0.5 nM; at EGFR (d746-750), under 0.15 nM; on EGFR (WT), 0.7 nM. For the same compound, the results for the GI50 in assay [1], in assay [2] and in assay [3] were 9 nM, 1.9 nM and 370 nM, respectively.

Regarding `C=CC(=O)N[C@@H]1Cn2c(c(-c3cnc4ccccc4c3)c3c(N)ncnc32)C1C` (stereo partly drawn) [Example 24, N-((7S)-4-amino-6-methyl-5-(quinolin-3-yl)-7,8-dihydro-6H-pyrimido[5,4-b]pyrrolizin-7-yl)acrylamide], the IC50 at EGFR (T790M/L858R) was 0.83 nM; on EGFR (d746-750/T790M), 0.31 nM; against EGFR (L858R), 1.1 nM; on EGFR (d746-750), 0.85 nM; against EGFR (WT), 8.6 nM. Moreover, the GI50 in assay [1] is 110 nM; in assay [2] it was 4.9 nM; in assay [3], 3400 nM.

In the case of `C=C1c2c(-c3cnc4ccccc4c3)c3c(N)ncnc3n2C[C@H]1NC(=O)/C=C/CN(C)CC` [Example 11, (S,E)-N-(4-amino-6-methylene-5-(quinolin-3-yl)-7,8-dihydro-6H-pyrimido[5,4-b]pyrrolizin-7-yl)-4-(ethyl(methyl)amino)but-2-enamide], the concentration for half-maximal inhibition (IC50) was determined as 0.76 nM at EGFR (T790M/L858R); 0.32 nM on EGFR (d746-750/T790M); 1.4 nM at EGFR (L858R); 0.88 nM at EGFR (d746-750); 12 nM at EGFR (WT). For the same compound, the concentration for 50% growth inhibition (GI50) in assay [1] stood at 260 nM; in assay [2], 9.7 nM; in assay [3], 3900 nM.

On to `C=C1c2c(-c3cnc4ccccc4c3)c3c(N)ncnc3n2C[C@H]1NC(=O)/C=C/CN(CC)CC` [Example 10, (S,E)-N-(4-amino-6-methylene-5-(quinolin-3-yl)-7,8-dihydro-6H-pyrimido[5,4-b]pyrrolizin-7-yl)-4-(diethylamino)but-2-enamide], for which the half-maximal inhibitory concentration (IC50) came out at 1.5 nM at EGFR (T790M/L858R); 0.61 nM against EGFR (d746-750/T790M); 2.6 nM on EGFR (L858R); 1.8 nM on EGFR (d746-750); 22 nM on EGFR (WT). Moreover, the GI50 amounted to 310 nM in assay [1], 8.1 nM in assay [2] and 4400 nM in assay [3].

Take `C=C1c2c(-c3cnc4ccccc4c3)c3c(N)ncnc3n2C[C@H]1NC(=O)/C=C/CN1CCCCC1` [Example 7, (S,E)-N-(4-amino-6-methylene-5-(quinolin-3-yl)-7,8-dihydro-6H-pyrimido[5,4-b]pyrrolizin-7-yl)-4-(piperidin-1-yl)but-2-enamide]: the half-inhibitory concentration (IC50) stood at 1 nM against EGFR (T790M/L858R); 0.53 nM against EGFR (d746-750/T790M); 1.7 nM against EGFR (L858R); 1.2 nM on EGFR (d746-750); 12 nM at EGFR (WT). Besides, the GI50 in assay [1] came to 150 nM; in assay [2] it was 5.6 nM; in assay [3], 2600 nM.

In the case of `C=CC(=O)N[C@@H]1CC(=C)c2c(-c3cnc4ccccc4c3)c3c(N)ncnc3n2C1` [Example 17, (R)—N-(4-amino-6-methylene-5-(quinolin-3-yl)-6,7,8,9-tetrahydropyrimido[5,4-b]indolizin-8-yl)acrylamide], the half-maximal inhibitory concentration (IC50) against EGFR (T790M/L858R) was determined as 23 nM; against EGFR (d746-750/T790M), 11 nM; at EGFR (L858R) it was 50 nM; against EGFR (d746-750), 39 nM; on EGFR (WT) it was 580 nM. The 50% growth inhibitory concentration (GI50) in assay [1] is 2900 nM; in assay [2], 160 nM; in assay [3], over 10000 nM.
